Measurements from patent publication US5736539A, “Inhibitors of farnesyl-protein transferase” (Merck & Co., Inc., priority 1995, dated 1998).
Where a name gives a salt, the structure may show the parent alone.

What was measured:
[1] = molecular target: Farnesyl-protein transferase (FPTase); test: In vitro inhibition of ras farnesyl transferase (Ras-CVLS, [3H]FPP); assay type: biochemical, bovine brain or recombinant human; conditions: Ras-CVLS 3.5 μM, 0.25 μM [3H]FPP; partially purified bovine or recombinant human enzyme; read-out: IC50 (concentration of the test compound which gives 50% inhibition of FPTase)
Protocol: Ras-CVLS at 3.5 μM, 0.25 μM [^3 H]FPP, and the indicated compounds were incubated with either a partially purified bovine enzyme preparation or a recombinant human enzyme preparation.

[2] = system: Ras farnesylation in the v-ras cell line (viral Ha-ras p21); test: In vivo ras farnesylation assay (v-ras cell line, immunoprecipitation, percent inhibition of farnesyl transfer to protein); assay type: cell-based; conditions: 4 h at 37° C. then additional 20 h labelling with [35S]methionine
Protocol: In vivo ras farnesylation assay
The cell line used in this assay was the v-ras line, which expressed viral Ha-ras p21. The assay was performed essentially as described in DeClue, J. E. et. al., Cancer Research 51,712-717, (1991). Cells in 10 cm dishes at 50-75% confluency were treated with the test compound (final concentration of solvent, methanol or dimethyl sulfoxide, was 0.1%). After 4 hours at 37° C., the cells were labelled in 3 ml methionine-free DMEM supplemeted with 10% regular DMEM, 2% fetal bovine serum and 400 μCi[^35 S]methionine (1000 Ci/mmol). After an additional 20 hours, the cells were lysed in 1 ml lysis buffer (1% NP40/20 mM HEPES, pH 7.5/5 mM MgCl2 /1 mM DTT/10 μg/ml aprotinen/2 μg/ml leupeptin/2 μg/ml antipain/0.5 mM PMSF) and the lysates cleared by centrifugation at 100,000×g for 45 min. Aliquots of lysates containing equal numbers of acid-precipitable counts were bought to 1 ml with IP buffer (lysis buffer lacking DTT) and immunoprecipitated with the ras-specific monoclonal antibody Y13-259 (Furth, M. E. et. al., J. Virol. 43, 294-304, (1982)). Following a 2 hour antibody incubation at 4° C., 200 μl of a 25% suspension of protein A-Sepharose coated with rabbit anti rat IgG was added for 45 min. The immunoprecipitates were washed four times with IP buffer ([…] HEPES, pH 7.5/1 mM EDTA/1% Triton X-100.0.5% deoxycholate/0.1%/SDS/0.1M NaCl) boiled in SDS-PAGE sample buffer and loaded on 13% acrylamide gels. When the dye front reached the bottom, the gel was fixed, soaked in Enlightening, dried and autoradiographed. The intensities of the bands corresponding to farnesylated and nonfarnesylated ras proteins were compared to determine the percent inhibition of farnesyl transfer to protein.

Ras farnesylation = conditions: Hancock et al.; Casey et al.; Schafer et al., Science 245:379 (1989); cited from earlier work

Compound	IC50 [1]	IC50 [2]	Inhibition of Ras farnesylation in vivo (Ras farnesylation)
1-[2(R)-Amino-3-mercaptopropyl]-4-(1-naphthoyl)-2(S)-(3-methoxy-1-propyl)piperazine dihydrochloride [Example 18]	0.001 µM	–	–
CCCC[C@H]1CN(C(=O)c2cccc(C)c2C)CCN1C[C@@H](N)CS [Example 3, 1-[2(R)-Amino-3-mercaptopropyl]-2(S)-n-butyl-4-(2,3-dimethylbenzoyl)piperazine dihydrochloride]	0.006 µM	5 µM	–
Cc1cccc(C(=O)N2CCN(C[C@@H](N)CS)[C@@H](Cc3ccccc3)C2)c1C [Example 6, 1-[2(R)-Amino-3-mercaptopropyl]-2(S)-benzyl-4-(2,3-dimethylbenzoyl)piperazine dihydrochloride]	0.004 µM	0.5 to 1 µM	–
COCC[C@H]1CN(C(=O)c2cccc(C)c2C)CCN1C[C@@H](N)CS [Example 7, 1-[2(R)-Amino-3-mercaptopropyl]-4-(2,3-dimethylbenzoyl)-2(S)-(2-methoxyethyl)piperazine dihydrochloride]	–	0.5 to 1 µM	–
CSCC[C@H]1CN(C(=O)c2cccc(C)c2C)CCN1C[C@@H](N)CS [Example 8, 1-[2(R)-Amino-3-mercaptopropyl]-4-(2,3-dimethylbenzoyl)-2(S)-(2-methylthioethyl)piperazine dihydrochloride]	0.011 µM	0.5 to 1 µM	–
COCC[C@H]1CN(C(=O)c2cccc3ccccc23)CCN1C[C@@H](N)CS [Example 12, 1-[2(R)-Amino-3-mercaptopropyl]-4-(1-naphthoyl)-2(S)-(2-methoxyethyl)piperazine dihydrochloride]	0.005 µM	0.5 µM	–
CCCOCC[C@H]1CN(C(=O)c2cccc3ccccc23)CCN1C[C@@H](N)CS [Example 13, 1-[2(R)-Amino-3-mercaptopropyl]-2(S)-(2-(1-propoxy)ethyl)-4-(1-naphthoyl)piperazine dihydrochloride]	0.003 µM	0.5 µM	–
N[C@@H](CS)CN1CCN(C(=O)c2cccc3ccccc23)C[C@@H]1CCOCc1cccnc1 [Example 14, 1-[2(R)-Amino-3-mercaptopropyl]-2(S)-(2-(3-pyridylmethoxy)ethyl)-4-(1-naphthoyl)piperazine trihydrochloride]	0.001 µM	–	–
CCCOCC[C@H]1CN(C(=O)c2cccc3cccnc23)CCN1C[C@@H](N)CS [Example 15, 1-[2(R)-Amino-3-mercaptopropyl]-2(S)-(2-(1-propoxy)ethyl)-4-(8-quinolinylcarbonyl)piperazine trihydrochloride]	0.006 µM	–	–
CCCC[C@H]1CN(C(=O)c2cccc3ccccc23)CCN1C[C@@H](N)CS [Example 16, 1-[2(R)-Amino-3-mercaptopropyl]-2(S)-n-butyl-4-(1-naphthoyl)piperazine dihydrochloride]	0.002 µM	0.5 µM	–
CCCC[C@H]1CN(C(=O)c2cccc3c2OCC3)CCN1C[C@@H](N)CS [Example 17, 1-[2(R)-Amino-3-mercaptopropyl]-2(S)-n-butyl-4-[7-(2,3-dihydrobenzofuranoyl)]piperazine dihydrochloride]	0.006 µM	0.5 µM	–
CCCC[C@H]1CN(C(=O)c2cccc3cccnc23)CCN1C[C@@H](N)CS [Example 19, 1-(2(R)-Amino-3-mercaptopropyl)-2(S)-n-butyl-4-(8-quinolinylcarbonyl)piperazine trihydrochloride]	0.005 µM	1 µM	–
COCC[C@H]1CN(C(=O)c2cccc3ccccc23)CCN1C[C@@H](N)CSSC[C@H](N)CN1CCN(C(=O)c2cccc3ccccc23)C[C@@H]1CCOC [Example 21, bis-1, 1'-[2(R)-Amino-3-(2(S)-(2-methoxyethyl)-4-naphthoyl-1-piperazinyl)]propyl disulfide tetrahydrochloride]	0.001 µM	–	–
CC(=O)NCCCC[C@H]1CN(C(=O)c2cccc3ccccc23)CCN1C[C@@H](N)CS [Example 27, 1-[2(R)-Amino-3-mercaptopropyl]-4-(1-naphthoyl)-2(S)-(4-acetamidobutyl)piperazine dihydrochloride]	0.0035 µM	0.5 µM	–
N[C@@H](CS)CN1CCCN(C(=O)c2cccc3ccccc23)CC1 [Example 28, 1-(2(R)-Amino-3-mercaptopropyl)-4-(1-naphthoyl)homopiperazine dihydrochloride]	0.021 µM	10 µM	–
NC(CS)CN1CCN(C(=O)c2cccc3ccccc23)CC1C(=O)N1CCCCC1 [Example 30, 1-(2(R)-Amino-3-mercaptopropyl)-4-(1-naphthoyl)-2(S)-piperidylcarboxyl-4-piperazine dihydrochloride]	0.003 µM	0.5 µM	–
COC(=O)C1CN(C[C@@H](N)CS)CCN1Cc1cccc2ccccc12 (stereo partly drawn) [Example 31, Methyl 4-(2(R)-amino-3-mercaptopropyl)-l-(1-naphthylmethyl)piperazine-2-carboxylate hydrochloride]	0.0029 µM	10 µM	–
CC[C@H](C)C(=O)O[C@H]1CCC=C2C=C[C@H](C)[C@H](CC[C@@H]3C[C@@H](O)CC(=O)O3)[C@H]21 [compactin]	–	–	Inhibition of Ras farnesylation in vivo has been demonstrated
CC[C@H](C)C(=O)O[C@H]1C[C@@H](C)C=C2C=C[C@H](C)[C@H](CC[C@@H]3C[C@@H](O)CC(=O)O3)[C@H]21 [lovastatin]	–	–	Inhibition of Ras farnesylation in vivo has been demonstrated
